According to PubChem BioAssay (NCI):
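Test compounds were applied to cells in 96-well plates for 48 hours at 5 doses. GI50 = concentration required for 50% inhibition of growth. TGI denotes the concentration required for complete inhibition of growth.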

How the values were obtained:
Assay in all cases: NCI anticancer screen, dose series, 48 h
HCC-2998 colon = system: HCC-2998 colon
SF-295 CNS = system: SF-295 CNS
UACC-62 melanoma = system: UACC-62 melanoma
CAKI-1 renal = system: CAKI-1 renal
K-562 leukemia = system: K-562 leukemia
SK-MEL-28 melanoma = system: SK-MEL-28 melanoma
OVCAR-4 ovarian = system: OVCAR-4 ovarian
RPMI-8226 leukemia = system: RPMI-8226 leukemia
IGROV1 ovarian = system: IGROV1 ovarian
BT-549 breast = system: BT-549 breast
ACHN renal = system: ACHN renal
T-47D breast = system: T-47D breast
SF-539 CNS = system: SF-539 CNS
SK-MEL-2 melanoma = system: SK-MEL-2 melanoma
KM12 colon = system: KM12 colon
U251 CNS = system: U251 CNS
OVCAR-8 ovarian = system: OVCAR-8 ovarian
SNB-75 CNS = system: SNB-75 CNS
DU-145 prostate = system: DU-145 prostate
MDA-MB-231 breast = system: MDA-MB-231 breast
HS 578T breast = system: HS 578T breast
786-0 renal = system: 786-0 renal
SW-620 colon = system: SW-620 colon
OVCAR-5 ovarian = system: OVCAR-5 ovarian
HOP-62 NSCLC = system: HOP-62 NSCLC
NCI-H460 lung = system: NCI-H460 lung
M14 melanoma = system: M14 melanoma
NCI/ADR-RES ovarian = system: NCI/ADR-RES ovarian
NCI-H23 lung = system: NCI-H23 lung
HL-60(TB) leukemia = system: HL-60(TB) leukemia
TK-10 renal = system: TK-10 renal
A498 renal = system: A498 renal
MALME-3M melanoma = system: MALME-3M melanoma
HOP-92 NSCLC = system: HOP-92 NSCLC
SN12C renal = system: SN12C renal
MCF7 breast = system: MCF7 breast
SNB-19 CNS = system: SNB-19 CNS
LOX IMVI melanoma = system: LOX IMVI melanoma
SR leukemia = system: SR leukemia
UACC-257 melanoma = system: UACC-257 melanoma
A549 NSCLC = system: A549 NSCLC
HCT-116 colon = system: HCT-116 colon
OVCAR-3 ovarian = system: OVCAR-3 ovarian
NCI-H522 lung = system: NCI-H522 lung
HT29 colon = system: HT29 colon
SK-OV-3 ovarian = system: SK-OV-3 ovarian
EKVX NSCLC = system: EKVX NSCLC
NCI-H226 lung = system: NCI-H226 lung
CCRF-CEM leukemia = system: CCRF-CEM leukemia
MDA-MB-435 = system: MDA-MB-435
UO-31 renal = system: UO-31 renal
SK-MEL-5 melanoma = system: SK-MEL-5 melanoma
HCT-15 colon = system: HCT-15 colon
PC-3 prostate = system: PC-3 prostate
COLO 205 colon = system: COLO 205 colon
MOLT-4 leukemia = system: MOLT-4 leukemia
SF-268 CNS = system: SF-268 CNS

**Q.** How did the GI50 (HCC-2998 colon) turn out when `Nc1n[nH]c2cc(F)c([C@@H]3Nc4c(F)cc5[nH]ncc5c4[C@H]4C5CCC(C5)[C@@H]34)cc12` (some centres undefined) was run?
**A.** 118 nM

**Q.** What about the TGI (HCC-2998 colon) of the same compound?
**A.** 4500 nM

**Q.** And the GI50 (SF-295 CNS)?
**A.** 97.1 nM

**Q.** And the TGI (SF-295 CNS)?
**A.** 3820 nM

**Q.** And the GI50 (UACC-62 melanoma)?
**A.** 162 nM

**Q.** What about the TGI (UACC-62 melanoma) of the same compound?
**A.** 6770 nM

**Q.** And the GI50 (CAKI-1 renal)?
**A.** 137 nM

**Q.** And the TGI (CAKI-1 renal)?
**A.** 3380 nM

**Q.** What about the GI50 (K-562 leukemia) of the same compound?
**A.** 110 nM

**Q.** And the TGI (K-562 leukemia)?
**A.** 12700 nM

**Q.** And the GI50 (SK-MEL-28 melanoma)?
**A.** 3750 nM

**Q.** What about the TGI (SK-MEL-28 melanoma) of the same compound?
**A.** 13400 nM

**Q.** And the GI50 (OVCAR-4 ovarian)?
**A.** 566 nM

**Q.** What about the TGI (OVCAR-4 ovarian) of the same compound?
**A.** 33300 nM

**Q.** And the GI50 (RPMI-8226 leukemia)?
**A.** 145 nM

**Q.** And the TGI (RPMI-8226 leukemia)?
**A.** 5220 nM

**Q.** And the GI50 (IGROV1 ovarian)?
**A.** 130 nM

**Q.** What about the TGI (IGROV1 ovarian) of the same compound?
**A.** 5040 nM

**Q.** And the GI50 (BT-549 breast)?
**A.** 103 nM

**Q.** What about the TGI (BT-549 breast) of the same compound?
**A.** 1370 nM

**Q.** And the GI50 (ACHN renal)?
**A.** 188 nM

**Q.** And the TGI (ACHN renal)?
**A.** 11100 nM

**Q.** And the GI50 (T-47D breast)?
**A.** 5890 nM

**Q.** And the TGI (T-47D breast)?
**A.** 26600 nM

**Q.** And the GI50 (SF-539 CNS)?
**A.** 79.2 nM

**Q.** And the TGI (SF-539 CNS)?
**A.** 230 nM

**Q.** And the GI50 (SK-MEL-2 melanoma)?
**A.** 817 nM

**Q.** What about the TGI (SK-MEL-2 melanoma) of the same compound?
**A.** 9370 nM

**Q.** And the GI50 (KM12 colon)?
**A.** 129 nM

**Q.** And the TGI (KM12 colon)?
**A.** 853 nM

**Q.** And the GI50 (U251 CNS)?
**A.** 127 nM

**Q.** What about the TGI (U251 CNS) of the same compound?
**A.** 5700 nM

**Q.** And the GI50 (OVCAR-8 ovarian)?
**A.** 136 nM

**Q.** And the TGI (OVCAR-8 ovarian)?
**A.** 15200 nM

**Q.** What about the GI50 (SNB-75 CNS) of the same compound?
**A.** 89.4 nM

**Q.** What about the TGI (SNB-75 CNS) of the same compound?
**A.** 635 nM

**Q.** What about the GI50 (DU-145 prostate) of the same compound?
**A.** 157 nM

**Q.** What about the TGI (DU-145 prostate) of the same compound?
**A.** 7970 nM

**Q.** And the GI50 (MDA-MB-231 breast)?
**A.** 135 nM

**Q.** And the TGI (MDA-MB-231 breast)?
**A.** 5050 nM

**Q.** And the GI50 (HS 578T breast)?
**A.** 117 nM

**Q.** And the TGI (HS 578T breast)?
**A.** 2950 nM

**Q.** What about the GI50 (786-0 renal) of the same compound?
**A.** 211 nM

**Q.** And the TGI (786-0 renal)?
**A.** 7850 nM

**Q.** And the GI50 (SW-620 colon)?
**A.** 141 nM

**Q.** What about the TGI (SW-620 colon) of the same compound?
**A.** 6720 nM

**Q.** And the GI50 (OVCAR-5 ovarian)?
**A.** 175 nM

**Q.** What about the TGI (OVCAR-5 ovarian) of the same compound?
**A.** 8520 nM

**Q.** And the GI50 (HOP-62 NSCLC)?
**A.** 195 nM

**Q.** And the TGI (HOP-62 NSCLC)?
**A.** 6460 nM

**Q.** And the GI50 (NCI-H460 lung)?
**A.** 117 nM

**Q.** What about the TGI (NCI-H460 lung) of the same compound?
**A.** 3570 nM

**Q.** What about the GI50 (M14 melanoma) of the same compound?
**A.** 107 nM

**Q.** And the TGI (M14 melanoma)?
**A.** 5830 nM

**Q.** What about the GI50 (NCI/ADR-RES ovarian) of the same compound?
**A.** 140 nM

**Q.** What about the TGI (NCI/ADR-RES ovarian) of the same compound?
**A.** 5670 nM

**Q.** What about the GI50 (NCI-H23 lung) of the same compound?
**A.** 158 nM

**Q.** And the TGI (NCI-H23 lung)?
**A.** 5760 nM

**Q.** And the GI50 (HL-60(TB) leukemia)?
**A.** 100 nM

**Q.** What about the TGI (HL-60(TB) leukemia) of the same compound?
**A.** 317 nM

**Q.** What about the GI50 (TK-10 renal) of the same compound?
**A.** 2270 nM

**Q.** What about the TGI (TK-10 renal) of the same compound?
**A.** 27200 nM

**Q.** What about the GI50 (A498 renal) of the same compound?
**A.** 63 nM

**Q.** And the TGI (A498 renal)?
**A.** 212 nM

**Q.** What about the GI50 (MALME-3M melanoma) of the same compound?
**A.** 948 nM

**Q.** And the TGI (MALME-3M melanoma)?
**A.** 14300 nM

**Q.** What about the GI50 (HOP-92 NSCLC) of the same compound?
**A.** 360 nM

**Q.** And the TGI (HOP-92 NSCLC)?
**A.** 4100 nM

**Q.** And the GI50 (SN12C renal)?
**A.** 187 nM

**Q.** And the TGI (SN12C renal)?
**A.** 9460 nM

**Q.** And the GI50 (MCF7 breast)?
**A.** 118 nM

**Q.** What about the TGI (MCF7 breast) of the same compound?
**A.** 6320 nM

**Q.** What about the GI50 (SNB-19 CNS) of the same compound?
**A.** 134 nM

**Q.** What about the TGI (SNB-19 CNS) of the same compound?
**A.** 14900 nM

**Q.** And the GI50 (LOX IMVI melanoma)?
**A.** 144 nM

**Q.** What about the TGI (LOX IMVI melanoma) of the same compound?
**A.** 4410 nM

**Q.** What about the GI50 (SR leukemia) of the same compound?
**A.** 115 nM

**Q.** What about the TGI (SR leukemia) of the same compound?
**A.** 11100 nM

**Q.** And the GI50 (UACC-257 melanoma)?
**A.** 5160 nM

**Q.** What about the TGI (UACC-257 melanoma) of the same compound?
**A.** 23300 nM

**Q.** And the GI50 (A549 NSCLC)?
**A.** 134 nM

**Q.** What about the TGI (A549 NSCLC) of the same compound?
**A.** 13900 nM

**Q.** What about the GI50 (HCT-116 colon) of the same compound?
**A.** 118 nM

**Q.** What about the TGI (HCT-116 colon) of the same compound?
**A.** 1560 nM

**Q.** What about the GI50 (OVCAR-3 ovarian) of the same compound?
**A.** 105 nM

**Q.** And the TGI (OVCAR-3 ovarian)?
**A.** 3730 nM

**Q.** What about the GI50 (NCI-H522 lung) of the same compound?
**A.** 93.2 nM

**Q.** What about the TGI (NCI-H522 lung) of the same compound?
**A.** 2220 nM

**Q.** And the GI50 (HT29 colon)?
**A.** 119 nM

**Q.** And the TGI (HT29 colon)?
**A.** 5390 nM

**Q.** And the GI50 (SK-OV-3 ovarian)?
**A.** 275 nM

**Q.** And the TGI (SK-OV-3 ovarian)?
**A.** 20700 nM

**Q.** And the GI50 (EKVX NSCLC)?
**A.** 167 nM

**Q.** What about the TGI (EKVX NSCLC) of the same compound?
**A.** 23400 nM

**Q.** What about the GI50 (NCI-H226 lung) of the same compound?
**A.** 141 nM

**Q.** What about the TGI (NCI-H226 lung) of the same compound?
**A.** 1410 nM

**Q.** What about the GI50 (CCRF-CEM leukemia) of the same compound?
**A.** 127 nM

**Q.** What about the TGI (CCRF-CEM leukemia) of the same compound?
**A.** 28700 nM

**Q.** And the GI50 (MDA-MB-435)?
**A.** 72.7 nM

**Q.** What about the TGI (MDA-MB-435) of the same compound?
**A.** 195 nM

**Q.** What about the GI50 (UO-31 renal) of the same compound?
**A.** 209 nM

**Q.** What about the TGI (UO-31 renal) of the same compound?
**A.** 10800 nM

**Q.** And the GI50 (SK-MEL-5 melanoma)?
**A.** 114 nM

**Q.** And the TGI (SK-MEL-5 melanoma)?
**A.** 538 nM

**Q.** And the GI50 (HCT-15 colon)?
**A.** 111 nM

**Q.** What about the TGI (HCT-15 colon) of the same compound?
**A.** 3690 nM

**Q.** What about the GI50 (PC-3 prostate) of the same compound?
**A.** 149 nM

**Q.** What about the TGI (PC-3 prostate) of the same compound?
**A.** 8040 nM

**Q.** What about the GI50 (COLO 205 colon) of the same compound?
**A.** 124 nM

**Q.** And the TGI (COLO 205 colon)?
**A.** 1030 nM

**Q.** And the GI50 (MOLT-4 leukemia)?
**A.** 145 nM

**Q.** What about the TGI (MOLT-4 leukemia) of the same compound?
**A.** 14100 nM

**Q.** And the GI50 (SF-268 CNS)?
**A.** 306 nM

**Q.** And the TGI (SF-268 CNS)?
**A.** 4490 nM
